Measurements taken from patent US8097440B1, “Engineered microorganisms capable of producing target compounds under anaerobic conditions” (Gevo, Inc., priority 2008, dated 2012).
Changes are numbered by the printed parent chain.

Columns and labels:
[1] = target: T1, E. coli KARI Ec_IlvC variant Ec_IlvC^2H10-his6 (A71S, R76D, S78D, Q110A), SEQ ID NO: 31 (Escherichia coli, UniProt P05793, A71S/Q110A/R76D/S78D); assay: KARI assay, purified Ec_IlvC^2H10-his6; assay type: biochemical; conditions: acetolactate as substrate
T1 construct: T37 values cited for the gene on pGV1976
T1 sequence (P05793 with tags, fused parts or gaps A71S/R76D/S78D/Q110A): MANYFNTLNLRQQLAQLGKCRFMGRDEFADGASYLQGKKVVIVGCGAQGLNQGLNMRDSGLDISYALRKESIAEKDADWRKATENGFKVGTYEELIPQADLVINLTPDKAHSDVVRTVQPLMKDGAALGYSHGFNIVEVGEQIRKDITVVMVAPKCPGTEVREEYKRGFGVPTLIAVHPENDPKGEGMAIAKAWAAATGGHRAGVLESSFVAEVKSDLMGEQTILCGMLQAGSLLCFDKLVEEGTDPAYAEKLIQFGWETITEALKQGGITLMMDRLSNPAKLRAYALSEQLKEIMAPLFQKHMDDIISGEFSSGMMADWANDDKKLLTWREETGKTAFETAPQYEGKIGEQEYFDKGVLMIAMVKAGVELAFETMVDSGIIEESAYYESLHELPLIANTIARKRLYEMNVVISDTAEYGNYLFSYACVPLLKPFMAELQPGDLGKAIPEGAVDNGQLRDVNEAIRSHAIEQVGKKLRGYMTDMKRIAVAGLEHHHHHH
Experimental: (§1) KARI cuvette assay: KARI activity was assayed kinetically by monitoring the decrease in NAD(P)H concentration by measuring the absorbance at 340 nm. A reaction buffer was prepared containing 250 mM potassium phosphate pH 7, 1 mM DTT and 10 mM MgCl2. Cell pellets were resuspended (0.25 g wet weight/mL buffer) in 250 mM potassium phosphate (KPi) buffer containing 1 mM DTT and 10 mM MgCl2. The resuspended cells were lysed by sonication for 1 min with a 50% duty cycle and pelleted at 11000×g and 4° C. for 15 min. A reaction mixture consisting of 910 μl reaction buffer, 50 μl acetolactate, and 20 μl lysate was prepared in a cuvette. […]
(§2) Only 20% of the enzymes of the recombination library were active on NADH. After screening 1,000 clones using the NADH depletion assay at 340 nm, 26 KARI variants were selected for a rescreen by the high-throughput assay described in Example 14 and eight thereof were expressed in 25 ml LBamp medium in shake flasks according to the protocol for cell growth and protein expression in shake flasks as described in Example 14, purified according to the protocol for purification of KARI enzymes as described in Example 14, and NAD(P)H depletion at 340 nm was measured again. […] The KM values of variants Ec_llvC^2H10-his6 and Ec_llvC^6E6-his6 were measured and the catalytic efficiencies were calculated.

[2] = target: T2, E. coli KARI Ec_IlvC variant Ec_IlvC^6E6-his6 (A71S, R76D, S78D, Q110V), SEQ ID NO: 34 (Escherichia coli, UniProt P05793, A71S/Q110V/R76D/S78D); assay: KARI assay, purified Ec_IlvC^6E6-his6; assay type: biochemical
T2 construct: T37 values cited for the gene on pGV1975
T2 sequence (P05793 with tags, fused parts or gaps A71S/R76D/S78D/Q110V): T1 sequence (P05793 with tags, fused parts or gaps A71S/R76D/S78D/Q110A) with A110V
Experimental: as §1
as §2, with “calculated. […]” for “calculated.”

NC(=O)C1=CN([C@@H]2O[C@H](COP(=O)(O)OP(=O)(O)OC[C@H]3O[C@@H](n4cnc5c(N)ncnc54)[C@H](O)[C@@H]3O)[C@@H](O)[C@H]2O)C=CC1 [NADH, nicotinamide adenine dinucleotide]
kcat/KM [1]: 60,322 M^−1 * s^−1
kcat/KM ([2]; Example 15, expressed in E. coli BL21(DE3), purified): 74,045 M^−1 * s^−1
activity (in terms of kcat/KM) on NADH compared to wild-type activity on NADPH ([2]; best variant, relative to wild-type with NADPH): 85%
